PMC8147214, “Identification and Characterization of a Novel, Cold-Adapted D-Xylobiose- and D-Xylose-Releasing Endo-β-1,4-Xylanase from an Antarctic Soil Bacterium, Duganella sp. PAMC 27433” (Biomolecules, 2021)

Tested on: T1, rXylR
T1 construct: gene XylR; mature GH10 xylanase, signal peptide (1-23) removed, N-terminal His6 tag (pET-28a(+)) kept; E. coli BL21; precursor 373 aa; mature N-terminus AEDTPEP by primer
Experiment: p-nitrophenol release, Michaelis-Menten non-linear regression
Assay type: biochemical, Duganella sp. PAMC 27433
Conditions: 50 mM sodium phosphate pH 5.5, 40 °C; substrate 1-10 mM
From the text: p-nitrophenol release, Michaelis-Menten non-linear regression on rXylR

## O=[N+]([O-])c1ccc(O[C@@H]2O[C@H](CO)[C@@H](O[C@@H]3O[C@H](CO)[C@@H](O)[C@H](O)[C@H]3O)[C@H](O)[C@H]2O)cc1 [pNP-β-D-cellobioside]
  Km: 1210 µM
